Test results published in US11484579B2, “Vitamins and alpha keto acid compositions for use in a treatment program for chronic kidney disease patients” (priority 2017, dated 2022).

Assay: Certificate of analysis: solubility
Type: physicochemical
Conditions: batch SCP-PAMA-03; specification: Soluble in water

Structure (SMILES): O=C(Cc1ccccc1)C(=O)[O][Mg][O]C(=O)C(=O)Cc1ccccc1 [Alpha keto phenylalanine magnesium]
- Solubility: Soluble in water
